Assay results taken from US20190300868A1, “COMPOSITIONS AND METHODS FOR CRISPR-BASED SCREENING” (The Regents of the University of California, priority 2016, published 2019).

What was measured:
[1] = test system: K562 cells; assay: Viability of cells loaded onto the device after chemical treatment (epistasis experiment); type: cell-based, human
Description: (§1) For the perturb-seq epistasis experiment, seven three-guide vectors targeting every possible combination of ATF6, IRE1α, and PERK as well as two independent three-guide vectors with three negative control guide RNAs and different barcodes were individually packaged into lentiviruses. Freshly produced (i.e. not frozen) lentiviruses were spinfected into cBA007 cells (at 33° C. for 2 h at 1000×g) in media supplemented with 8 μg/mL polybrene. The virus was removed by centrifugation and cells were resuspended in fresh media. Three days after infection, transduction efficiencies of 5-10% were measured by flow cytometry. Cells were combined into a pool with equal numbers of transduced (BFP+) cells for each vector (resulting in 2-fold excess of negative control vectors) and the combined cells were then sorted on a BD 63 FACS Aria2 to near purity. To limit heterogenous effects of cell microenvironments caused by cell settling, the sorted cells were grown with continuous agitation on an orbital shaker. Five days after infection, the pooled and sorted cells were split into three populations, which were treated as follows: 1) DMSO control treatment for 6 hr; 2) treatment with 4 μg/mL tunicamycin for 6 hr; and 3) treatment with 100 nM thapsigargin for 4 hr. […]

[2] = test system: CHOP mRNA; assay: RT-qPCR of CHOP mRNA in sgRNA-transduced cells +/- thapsigargin; type: cell-based, human; settings: cells transduced with SEC61A1-, SEC61B-, or SEC61G-targeting sgRNAs; 0.5 μM Tg for 1.5 hours
Description: RT-qPCR and semi-quantitative PCR for XBP1 mRNA splicing Cells were harvested and total RNA was isolated using TRIzol® Reagent (ThermoFisher Scientific, 15596-018) and Phase Lock Gel tubes (VWR, 10052-170) or NucleoSpin® RNA (Macherey-Nagel, 67 740955.50) essentially according to manufacturers' instructions. RNA prepared by TRIzol® extraction was treated with TURBO™ DNase (ThermoFisher Scientific). RNA was converted to cDNA using SuperScript® II or SuperScript® III Reverse Transcriptase (ThermoFisher Scientific) under standard conditions with oligo(dT) primers or random hexamers with or without RNaseOUT™ Recombinant Ribonuclease Inhibitor (ThermoFisher Scientific). Quantitative PCR reactions were prepared with 1× master mix containing 1× Colorless GoTaq® Reaction Buffer (Promega, M792A), MgCl2 (0.7 mM), dNTPs (0.2 mM each), primers (0.75 μM each), and 1000× SYBR Green with GoTaq® DNA polymerase (Promega, M830B) in 22 μL reactions. Reactions were run on a LightCycler® 480 Instrument (Roche). Semi-quantitative XBP1-specific PCR reactions were prepared with 2 μL of cDNA diluted 1:10 using a master mix containing 0.9× Colorless GoTaq® Reaction Buffer (Promega, M792A), dNTPs (0.23 mM each), primers (0.45 μM each) with GoTaq® DNA polymerase (Promega, M830B) in 22.1 μL reactions. […]

[3] = test system: K562 cells with dCas9-KRAB; assay: Single-cell RNA-seq cell cycle analysis of thapsigargin-treated cells; type: cell-based, human; settings: thapsigargin treatment, UPR epistasis experiment
Description: as §1, with “purity.” for “purity. To limit heterogenous effects of cell microenvironments caused by cell settling, the sorted cells were grown with continuous agitation on an orbital shaker. Five days after infection, the pooled and sorted cells were split into three populations, which were treated as follows: 1) DMSO control treatment for 6 hr; 2) treatment with 4 μg/mL tunicamycin for 6 hr; and 3) treatment with 100 nM thapsigargin for 4 hr.”
Single-cell analysis in FIG. 3 A population consisting of cells treated with 100 nM thapsigargin in each of our 8 genetic backgrounds was formed, along with DMSO-treated control cells. As outlined in the “Low cell count/inviable cell removal” section, cells with substantially lower than average UMI counts or that scored strongly for inviability markers from analysis were removed, as these groups partitioned away from the rest of the population in preliminary analyses. […]

[4] = test system: mCherry reporter of IRE1α activation; assay: UPRE mCherry / EF1α GFP reporter in K562 reporter cells (cBA011), flow cytometry; type: cell-based, human; settings: K562 reporter cells (cBA011) treated with tunicamycin
[5] = test system: mRFP; assay: E. coli CRISPRi reporter strain, knockdown of mRFP by constant region variants; type: cell-based; settings: mRFP-targeting protospacer
Source text: Design and cloning of constant region variants for testing in E. coli. Constant region bases to mutate were identified by inspection of the crystal structure of Cas9 bound to guide RNA and target DNA (FIG. 9D, PDB ID codes 4OO8, 4UN3, 4ZT0 (Nishimasu et al. 2014, Anders et al. 2014, Jiang et al. 2015)). […] If applicable, sequence conservation patterns of the base in crRNAs/tracrRNAs of Streptococcus species and previous reports of constant regions carrying changes at the base (Briner et al. 2014, Dang et al. 2015) were used to determine the type of mutation. In this fashion, 15 constant region variants with mutations in different parts of the constant region were designed (FIG. 2D). The most diverse constant region variants cr2 and cr3 were designed by combining multiple individual mutations (FIG. 2D). To rapidly assess the activity of the variant constant regions, the variants were fused to a mRFP-targeting guide RNA (mRFP-NT1, sequence […] (SEQ ID NO: 36)) (Qi et al. 2013) and tested in an E. coli CRISPRi reporter strain for knockdown of mRFP (see below). To eliminate variability from copy number variation, guide RNAs were cloned into a plasmid for site-specific integration into the E. coli genome at attL and expressed from single copy from an IPTG-inducible PLlacO-1 promoter (Lutz, Bujard 1997). […]

[6] = test system: genomically integrated GFP; assay: GFP knockdown by sgRNA expression vectors, flow cytometry; type: cell-based, human; settings: paired with EGFP-NT2 protospacer; cr2 from mU6, cr3 from hU6 promoter

**Q.** Which results are given for `C/C=C(/C)C(=O)O[C@H]1C(C)=C2[C@H]([C@@H]1OC(=O)CCCCCCC)[C@@](C)(OC(C)=O)C[C@H](OC(=O)CCC)[C@@]1(O)[C@H]2OC(=O)[C@@]1(C)O` [thapsigargin]?
**A.** viable cells loaded onto the device ([1]; human, 4 hr, 100 nM): 85.3%; CHOP expression [2]: CHOP upregulation; cell cycle effect [3]: PERK-dependent cell cycle arrest in G1

**Q.** With tunicamycin as the molecule, how does the “viable cells loaded onto the device” value ([1]; 4 μg/mL tunicamycin for 6 hr or 100 nM thapsigargin for 4 hr) read?
**A.** The value was 87.9%.

**Q.** And the “XBP1-dependent mCherry induction” value [4]?
**A.** The value was ≤ 16 fold.

**Q.** And the “induction of GFP (EF1a promoter control reporter)” value [4]?
**A.** Its value is “no similar induction”.

B1: cr2: sgRNA constant region, combination of 3, 5, 9, 15, SEQ ID NO: 25 (nucleic acid)
chain: GTTTGAGAGCTAAGCAGAAAGCTGCATAGCAAGTTCAAATAAGGCTAGTCCGTACACAACTTGAAAAAGTGGCAGCCGAGTCGGCTGCTTTTTTT
modifications: expressed or natural sequence
**Q.** For B1, which “function of constant region in bacteria” value [5] is on record?
**A.** Its value is “functional in bacteria”.

**Q.** And the “GFP depletion in K562 cells” value [6]?
**A.** Its value is “indistinguishable from that of the Perturb-seq vector”.

B2: cr3: sgRNA constant region, combination of 2, 4, 10, 14, SEQ ID NO: 26 (nucleic acid)
chain: GTTTCAGAGCTAAGCACAAGAGTGCATAGCAAGTTGAAATAAGGCTAGTCCGTTTACAACTTGAAAAAGTGGCACCCGAGTCGGGTGCTTTTTTT
modifications: expressed or natural sequence
**Q.** B2 was tested. Which “function of constant region in bacteria” value [5] did it give?
**A.** The value was “functional in bacteria”.

**Q.** What about the “GFP depletion in K562 cells” value [6] of the same molecule?
**A.** The value was “indistinguishable from that of the Perturb-seq vector”.
